The values below come from patent publication US4471115A, “Water soluble derivatives of cephalex and process for their preparation” (Neopharmed S.p.A., priority 1980, dated 1984).

A short description of data set [1]: Toxicity in the mouse (LD50). The conditions noted are these: in vivo. From the text:
(§1) Pharmacological and clinical tests have been carried out with the compounds of the invention and the results related to the lysine salt of 2-N-methylolcephalexin are hereinafter reported for illustrative purpose.

A short description of data set [2]: Toxicity in the rat (LD50). The conditions noted are these: in vivo, po, per os.
Text: as §1

A short description of another data set: Solubility. The class given is physicochemical. The settings on record: for Solubility in alcohols: ethanol / absolute alcohols.
The next data set can be described thus: pH of the water solution. The settings on record: water solution obtained in the preparation. The class given is physicochemical. As to the method: After about 10 minutes of stirring under the above conditions, a 50% solution of 14 g of lysine base was slowly added. The reaction mixture was little by little solubilized and the pH final value of the resulting solution was 7.5. The volume of the obtained solution was brought to the end value of 150 mls by adding cold distilled water. It was then sterile filtered and frozen in a prefreezer at -70° C. and finally lyophilized.

Data set [3] can be described thus: Cephalexin microbiological title.
The nature of the next data set: clinical. The settings on record: human, in vivo, po.
The conditions of data set [4]: well known; cited from earlier work.
The conditions of data set [5]: in vivo, po.

Where a name gives a salt, the structure may show the parent alone.

On to `CC1=C(C(=O)O)N2C(=O)[C@@H](NC(=O)[C@H](NCO)c3ccccc3)[C@H]2SC1` [Example 1, Lysine salt of 2-N-methylol-cephalexin], for which the LD50 in data set [1] (ip, intraperitoneal administration) was 3100 mg/kg; in data set [1] (oral administration), > 4000 mg/kg; in data set [2] it was > 4000 mg/kg. Also, the Solubility in alcohols result in the data set “Solubility” was “little soluble in absoluble alcohols”. For the same molecule, in “Solubility”, the Solubility in water result is “cold soluble in water”. Also, in “pH of the water solution”, the “Final pH of the resulting solution” value came out at 7.5. In addition, in data set [3], the Cephalexin microbiological title was 99 to 100 % of theoretical value. In “clinical”, this molecule gave a dose excreted at 24 h of 87%.

As for `CC1=C(C(=O)O)N2C(=O)[C@@H](NC(=O)[C@H](NCO)c3ccccc3)[C@H]2SC1` [Example 2, Sodium salt of 2-N-methylol-cephalexin], in “Solubility”, the Solubility in alcohols result was “little soluble in ethanol and absolute alcohols”; the Solubility in water result is listed as “highly water soluble”. Moreover, the “Final pH of the resulting solution” value in “pH of the water solution” is recorded as 7.1. Moreover, the Cephalexin microbiological title in data set [3] is 99 to 102 % of theoretical value.

Regarding `CC1=C(C(=O)O)N2C(=O)[C@@H](NC(=O)[C@H](N)c3ccccc3)[C@H]2SC1` [cephalexin, 7-(D-2-amino-2-phenylacetamido)-3-methyl-Δ^3-4-carboxylic acid], the Antibiotic utility entry in data set [4] is given as “wide spectrum antibiotic”.

As for `CC1=C(C(=O)O)N2C(=O)[C@@H](NC(=O)[C@H](N)c3ccccc3)[C@H]2SC1` [substance B, cephalexin monohydrated], in data set [5], the “Presence in the blood stream” value was “higher” and the “Time after administration at which actives concentrations are detected” value is reported as “more than 6 hours”.

The term LD50 denotes the dose expected to kill half of the subjects tested. Lower therefore signals a more toxic substance.
